Like-named read-outs stand apart in the source and are kept apart here.
Assays:
HCV = experiment: Combination of viral entry inhibitor with IFN-α, HCVcc infection system, luciferase assay; assay type: cell-based; settings: Huh7 cells, 72 hrs
Experimental: The current standard of care for the treatment of chronic hepatitis C is the combination of pegylated IFN-α (interferon-alpha) and ribavirin. […] Huh7 cells were incubated with various concentrations of Compound 1 or interferon alone, or combinations of both for 72 hrs, and the anti-HCV activity was measured by luciferase assays. The same was experiment was performed for Compound 5.

[1] = tested on: HCV2aCh (E2:G451R) mutant virus; experiment: E2:G451R mutant virus, immuno-fluorescence read-out; assay type: cell-based, HCV genotype 2a
Experimental: IF analysis: Following aspiration of supernatant from a 24-well plate, 1 ml of ice cold methanol was added to each well and the plate was stored overnight at −20° C. The following day, methanol was removed and the plates were air-dried at room temperature for about 30 minutes. The plate was then rinsed/rehydrated with two washes of PBS (˜5 minutes/wash). To block non-specific antibody binding, cells were incubated in blocking buffer (1% BSA, 0.2% skim milk in PBS) for 1 hour at room temperature. Primary antibody (mouse anti-HCV Core; Affinity BioReagents, MA1-080) was diluted 1:1000 in PBS+0.1% Tween-20 and incubated overnight at 4° C. on rocker (˜200 μl of antibody/well). The next day, wells were washed with PBS (three washes of 5 minutes each) and then incubated for 30 minutes at room temperature with a secondary antibody: goat anti-mouse_AlexaFluor488 (1:1000 dilution in PBS/Tween; Molecular Probes/Invitrogen #A11001). The cells were then washed with PBS three times (5 minutes each), including once with Hoechst dye (0.4 ug/ml; Molecular Probes/Invitrogen #H3570) to counterstain the nuclei of cells. Immunofluorescence staining was analyzed using 10× objective on a Zeiss fluorescent microscope.

Jc1-luc virus [2] = experiment: Luciferase compound activity assay, Jc1-luc virus in Huh7.5.1 cells; assay type: cell-based, HCV genotype-2a; settings: Hepatitis C virus, Huh-7.5.1
Experimental: Cell culture. Human hepatoma Huh-7.5.1 cells or Huh7 cells were grown at 37° C. and 5% CO2 in Dulbecco's modification of Eagle's medium supplemented with 2 mM L-glutamine, 1 mM Sodium pyruvate, 1× Non-essential amino acids mix, 100 units/ml penicillin, 100 μg/ml streptomycin, and 10% fetal bovine serum.
Virus plasmids. The chimeric full-length construct pFL-JC1, a GT2a/2a chimera consisting of structural genes from the J6CF isolate and non-structural genes from the JFH1 isolate, has been described previously. See Backes et al., J. Virol. 2010, 84:5775-89; Schaller et al., J. Virol., 2007, 81:4591-603; Koutsoudakis et al., J. Virol. 2006, 80:5308-20; Pietschmann et al., Proc. Natl. Acad. Sci., 2006, 103:7408-13. The firefly luciferase gene has been inserted to pFL-Jc1 to develop a plamid pFL-Jc1-luc for use as a reporter of viral replication. See Amako et al., J. Virol. 2009, 83:9237-46. Specifically, the pFL-JC1-luc construct can be utilized to develop an infectious HCV cell culture system to test novel HCV inhibitors, including entry inhibitors, in vitro using luciferase expression.
Preparation of infectious HCV. Jc1-luc or HCV2a/2aChRluc RNA was in vitro transcribed using T7 RiboMAX™ Express Large Scale RNA Production System (Promega). After RNA clean up (Qiagen RNeasy Mini kit), transfection was performed as previously described.
400 microliters of a Huh-7.5.1 or Huh7 cell suspension (10^7 cells/ml) was placed in a 0.4-cm cuvette with 10 μg of Jc1-luc or HCV2a/2aChRluc RNA and electroporated (Bio-Rad Gene Pulser System) using a single square wave at 260 V and 25 ms pulse length. The cells were plated in 15-cm tissue culture dishes (Corning) and supernatant was harvested and concentrated using a centrifugal filter (Amicon 100K, Millipore).
Luciferase compound activity assay. Cell culture and luciferase compound assays were performed as previously described. See Wyles et al., J. Virol. 2007, 81:3005-8; Wyles et al., Antimicrob Agents Chemother. 2009, 53:2660-2; Grünberger et al., J. Infect. Dis. 2008, 197:42-5; Wyles et al., Antimicrob Agents Chemother, 2008, 52:1862-4. Briefly, Huh7.5.1 cells were seeded into 96-well plates at a density of 10,000 cells per well in 100 μl medium. After incubating overnight for attachment, Jc1-luc virus at an MOI 0.01 was added to wells with or without compounds at the specified concentrations. All conditions were run in triplicate. After 24 hours, medium was aspirated and replaced with 100 μl of complete medium containing an identical concentration of compound(s) followed by additional 48 hour incubation. The luciferase assay (Bright-Glo; Promega) was carried out according to the manufacturer's instructions. Luciferase activity was determined using a microplate luminometer (Veritas microplate luminometer; Turner Biosystems). […]

Jc1-luc virus [3] = experiment: Synergy testing (Combination Index) in Jc1-luc system; assay type: cell-based, HCV genotype-2a
Experimental: Luciferase compound activity assay. Cell culture and luciferase compound assays were performed as previously described. See Wyles et al., J. Virol. 2007, 81:3005-8; Wyles et al., Antimicrob Agents Chemother. 2009, 53:2660-2; Grünberger et al., J. Infect. Dis. 2008, 197:42-5; Wyles et al., Antimicrob Agents Chemother, 2008, 52:1862-4. Briefly, Huh7.5.1 cells were seeded into 96-well plates at a density of 10,000 cells per well in 100 μl medium. After incubating overnight for attachment, Jc1-luc virus at an MOI 0.01 was added to wells with or without compounds at the specified concentrations. All conditions were run in triplicate. After 24 hours, medium was aspirated and replaced with 100 μl of complete medium containing an identical concentration of compound(s) followed by additional 48 hour incubation. The luciferase assay (Bright-Glo; Promega) was carried out according to the manufacturer's instructions. Luciferase activity was determined using a microplate luminometer (Veritas microplate luminometer; Turner Biosystems). The relative light units (RLU) for each condition were reported as the mean±the standard error of the mean for the three wells.
Synergy testing. The 50% effective concentration (EC50) of Compound 5 and other anti-HCV compounds was determined independently and used to set the range of concentrations for synergy experiments.
(§1) Data analysis. Determinations of compound interactions were quantified based on the median-effect principle described by Chou and Talalay. Chou T., Talalay P., Adv. Enzyme. Regul., 1984, 22:27-55. Combination indices (CIs) were determined using Calcusyn (Biosoft) for each experiment at the EC50, EC75, and EC90 levels. Five replicates per condition were evaluated. A CI<0.9 was considered synergistic, a CI≧0.9 and ≦[…] was considered additive, and a CI>1.1 was deemed antagonistic.

HCV2a/2aChRluc virus = experiment: Compound 5 with ribavirin or VX950 in the HCV2a/2aChRluc system; assay type: cell-based, HCV genotype 2a
Experimental: 100 μl of serially diluted compound solutions (100, 30, 10, 3, 1, 0.3, and 0.1 nM) was inoculated onto Huh-7 cells in a 96-well plate. Subsequently, 100 ul (TCID50, ˜0.6) of HCV2a/2aChRluc virus was added onto the cells. After co-incubation for 72 hrs, Renilla luciferase expression was determined (Renilla Luciferase Assay, Promega) and reported as relative light units (RLU).
as §1

SR-B1 pathway [4] = settings: cited from earlier work
SR-B1 pathway [5] = settings: human subjects; cited from earlier work

Structure (SMILES): COc1c(NC(=O)C(=O)c2ccc(OCCN3CCOCC3)c3ccccc23)cc(C(C)(C)C)cc1NS(C)(=O)=O [Compound 5, N-(5-tert-butyl-2-methoxy-3-(methylsulfonamido)phenyl)-2-(4-(2-morpholinoethoxy)naphthalen-1-yl)-2-oxoacetamide]
- effect of combination with IFN-α on inhibition of HCV infection in cell culture (HCV): additive to moderate synergistic effect
- sensitivity of E2 mutant relative to wild-type virus, immuno-fluorescence [1]: more resistant
- EC50 (Jc1-luc virus [2]): 20.2 ± 1.37 nM
- antagonism with any compound studied (Jc1-luc virus [3]): not antagonistic
- Combination Index (CI) with 2′-C-methyladenosine (Jc1-luc virus [3]; at 50% effective dose (ED50)): 1.09
- Combination Index (CI) with BILN2061 (Jc1-luc virus [3]; at 50% effective dose (ED50)): 0.98
- Combination Index (CI) with interferon-alpha (Jc1-luc virus [3]; at 50% effective dose (ED50)): 1.00
- interaction with VX1 (Jc1-luc virus [3]; at ED50, ED75 and ED90): consistent synergy
- interaction with all compounds tested (Jc1-luc virus [3]; at ED75 and ED90): synergy
- interaction with VX-950 (HCV2a/2aChRluc virus; HCV2a/2aCHRLuc system): consistent synergy
- effect of combination with ribavirin (HCV2a/2aChRluc virus; ribavirin 15 μM): no antagonistic effect
- HDL levels (SR-B1 pathway [4]; mice with a knock-out in the SR-B1 gene): not
- HDL levels (SR-B1 pathway [4]; mice): raised HDL levels
- HDL levels (SR-B1 pathway [5]): raised HDL levels
